Test results reported in ChEMBL document CHEMBL5316297, “Mechanistic Insight of Synthesized 1,4-Dihydropyridines as an Antidiabetic Sword against Reactive Oxygen Species” (J Med Chem, 2023).

How the values were obtained:
[1] = Acute toxicity in Swiss albino mouse assessed as effect on mortality up to 2000 mg/kg, po administered for 14 days; type: organism-based; details: in vivo, 336 h, time 14 day
[2] = Acute toxicity in Swiss albino mouse assessed as toxic symptoms up to 2000 mg/kg, po administered for 14 days; type: organism-based; details: in vivo, 336 h, time 14 day
Mus musculus [3] = experiment: Antidiabetic activity against high fat diet-STZ-induced diabetic Swiss albino mouse model assessed as reduction in blood glucose level at 0.2 mmol/Kg/day, po administered for 14 days; type: functional; details: time 14 day
[4] = Acute toxicity in Swiss albino mouse assessed as effect on motor alterations up to 2000 mg/kg, po administered for 14 days; type: organism-based; details: in vivo, 336 h, time 14 day
Mus musculus [5] = experiment: Antidiabetic activity against high fat diet-STZ-induced diabetic Swiss albino mouse model assessed as reduction in blood glucose level at 0.2 mmol/Kg/day, po administered for 14 days relative to glimepiride; type: functional; parameters: scale not given: the % may be the effect or the level left; details: time 14 day
Mus musculus [6] = experiment: Antidiabetic activity against high fat diet-STZ-induced diabetic Swiss albino mouse model assessed as reduction in blood glucose level at 0.2 mmol/Kg/day, po administered for 14 days relative to control; type: functional; parameters: scale not given: the % may be the effect or the level left; details: time 14 day
[7] = Acute toxicity in Swiss albino mouse assessed as effect on behavioural change up to 2000 mg/kg, po administered for 14 days; type: organism-based; details: in vivo, 336 h, time 14 day
[8] = Toxicity in high fat diet-STZ-induced diabetic Swiss albino mouse model assessed as changes in body weight at 0.2 mmol/Kg/day, po administered for 14 days (reference value: 26.6 to 27.8 g); type: organism-based; details: in vivo, 336 h, time 14 day

Row | SMILES | Activity [1] | Activity [2] | Activity (Mus musculus [3]) [mg/dL] | Activity [4] | Activity (Mus musculus [5]) [%] | Activity (Mus musculus [6]) [%] | Activity [7] | Activity [8] [g]
1 | CCOC(=O)C1=C(C)NC(C)=C(C(=O)OCC)C1c1ccc2c(c1)Cc1ccccc1-2 | Non-Toxic | Non-Toxic | 296.94 | Non-Toxic | 1 | 0.42 | Non-Toxic | 29.3
2 | CCOC(=O)C1=C(C)NC(C)=C(C(=O)OC)C1c1ccc2c(c1)OCO2 (stereo not given) | Non-Toxic | Non-Toxic | 138.36 | Non-Toxic | 160 | 53.6 | Non-Toxic | 27.4
3 | COC(=O)C1=C(C)NC(C)=C(C(=O)OC)C1c1ccc2c(c1)Cc1ccccc1-2 | Non-Toxic | Non-Toxic | 296.98 | Non-Toxic | 1 | 0.41 | Non-Toxic | 29.2
4 | CCOC(=O)C1=C(C)NC(C)=C(C(=O)OC)C1c1ccc2c(c1)OCCO2 (stereo not given) | Non-Toxic | Non-Toxic | 147.34 | Non-Toxic | 151 | 50.49 | Non-Toxic | 27.5
5 | CC1=C(C(=O)OC(C)C)C(c2ccc3c(c2)OCCO3)C(C(=O)OC(C)C)=C(C)N1 | Non-Toxic | Non-Toxic | 297.19 | Non-Toxic | 1 | 0.34 | Non-Toxic | 28.8
6 | COC(=O)C1=C(C)NC(C)=C(C(=O)OC)C1c1cccc2c1OCO2 | Non-Toxic | Non-Toxic | 114.42 | Non-Toxic | 184 | 61.63 | Non-Toxic | 26.6
7 | COC(=O)C1=C(C)NC(C)=C(C(=O)OC(C)(C)C)C1c1ccc2c(c1)OCO2 (stereo not given) | Non-Toxic | Non-Toxic | 297.04 | Non-Toxic | <1 | 0.39 | Non-Toxic | 29.1
8 | CCOC(=O)C1=C(C)NC(C)=C(C(=O)OC(C)C)C1c1cccc2c1OCO2 (stereo not given) | Non-Toxic | Non-Toxic | 297.39 | Non-Toxic | <1 | 0.27 | Non-Toxic | 28.9
9 | COCCOC(=O)C1=C(C)NC(C)=C(C(=O)OC)C1c1cccc2c1OCO2 (stereo not given) | Non-Toxic | Non-Toxic | 258.24 | Non-Toxic | 40 | 13.4 | Non-Toxic | 28.3
10 | CCOC(=O)C1=C(C)NC(C)=C(C(=O)OCCOC)C1c1ccc2c(c1)OCO2 (stereo not given) | Non-Toxic | Non-Toxic | 167.32 | Non-Toxic | 131 | 43.89 | Non-Toxic | 27.2
11 | COC(=O)C1=C(C)NC(C)=C(C(=O)OC(C)(C)C)C1c1cccc2c1OCO2 (stereo not given) | Non-Toxic | Non-Toxic | 297.34 | Non-Toxic | <1 | 0.29 | Non-Toxic | 28.7
12 | CCOC(=O)C1=C(C)NC(C)=C(C(=O)OCCOC)C1c1cccc2c1OCO2 (stereo not given) | Non-Toxic | Non-Toxic | 164.33 | Non-Toxic | 134 | 44.89 | Non-Toxic | 27.2
13 | CC1=C(C(=O)OCc2ccccc2)C(c2cccc3c2OCO3)C(C(=O)OCc2ccccc2)=C(C)N1 | Non-Toxic | Non-Toxic | 169.4 | Non-Toxic | 129 | 43.66 | Non-Toxic | 27.3
14 | COCCOC(=O)C1=C(C)NC(C)=C(C(=O)OC)C1c1ccc2c(c1)OCO2 (stereo not given) | Non-Toxic | Non-Toxic | 260.24 | Non-Toxic | 38 | 12.73 | Non-Toxic | 28.6
15 | CC1=C(C(=O)OC(C)(C)C)C(c2ccc3c(c2)OCO3)C(C(=O)OC(C)(C)C)=C(C)N1 | – | – | 296.38 | – | <1 | 0.61 | – | 26.9
16 | CCOC(=O)C1=C(C)NC(C)=C(C(=O)OC(C)C)C1c1ccc2c(c1)OCO2 (stereo not given) | Non-Toxic | Non-Toxic | 297.87 | Non-Toxic | <1 | 0.11 | Non-Toxic | 29.2
17 | CC1=C(C(=O)OC(C)(C)C)C(c2cccc3c2OCO3)C(C(=O)OC(C)(C)C)=C(C)N1 | Non-Toxic | Non-Toxic | 296.14 | Non-Toxic | <1 | 0.69 | Non-Toxic | 29.3
18 | CCOC(=O)C1=C(C)NC(C)=C(C(=O)OC)C1c1cccc2c1OCO2 (stereo not given) [OXODIPINE] | Non-Toxic | Non-Toxic | 108.4 | Non-Toxic | 190 | 63.65 | Non-Toxic | 27.2
19 | CC1=C(C(=O)OC(C)C)C(c2cccc3c2OCO3)C(C(=O)OC(C)C)=C(C)N1 | Non-Toxic | Non-Toxic | 268.23 | Non-Toxic | 30 | 10.05 | Non-Toxic | 28.9
20 | CCOC(=O)C1=C(C)NC(C)=C(C(=O)OCC)C1c1ccc2c(c1)OCCO2 | Non-Toxic | Non-Toxic | 150.35 | Non-Toxic | 148 | 49.58 | Non-Toxic | 26.8
21 | COC(=O)C1=C(C)NC(C)=C(C(=O)OC(C)C)C1c1ccc2c(c1)OCO2 (stereo not given) | Non-Toxic | Non-Toxic | 244.26 | Non-Toxic | 54 | 18.09 | Non-Toxic | 28.3
22 | COCCOC(=O)C1=C(C)NC(C)=C(C(=O)OCCOC)C1c1cccc2c1OCO2 | Non-Toxic | Non-Toxic | 208.41 | Non-Toxic | 90 | 30.11 | Non-Toxic | 27
23 | CCOC(=O)C1=C(C)NC(C)=C(C(=O)OCc2ccccc2)C1c1ccc2c(c1)OCO2 (stereo not given) | Non-Toxic | Non-Toxic | 169.35 | Non-Toxic | 129 | 43.21 | Non-Toxic | 27.3
24 | CCOC(=O)C1=C(C)NC(C)=C(C(=O)OCc2ccccc2)C1c1cccc2c1OCO2 (stereo not given) | Non-Toxic | Non-Toxic | 166.34 | Non-Toxic | 132 | 44.22 | Non-Toxic | 27.2
25 | COC(=O)C1=C(C)NC(C)=C(C(=O)OC)C1c1ccc2c(c1)OCCO2 | Non-Toxic | Non-Toxic | 153.21 | Non-Toxic | 145 | 48.62 | Non-Toxic | 27.3
26 | CC1=C(C(=O)OCc2ccccc2)C(c2ccc3c(c2)OCO3)C(C(=O)OCc2ccccc2)=C(C)N1 | – | – | 185.3 | – | 113 | 37.86 | – | 27
27 | COCCOC(=O)C1=C(C)NC(C)=C(C(=O)OCCOC)C1c1ccc2c(c1)OCO2 | – | – | 208.41 | – | 90 | 30.11 | – | 27.4
28 | COC(=O)C1=C(C)NC(C)=C(C(=O)OC(C)C)C1c1cccc2c1OCO2 (stereo not given) | Non-Toxic | Non-Toxic | 238.23 | Non-Toxic | 60 | 20.11 | Non-Toxic | 28.9
29 | CCOC(=O)C1=C(C)NC(C)=C(C(=O)OC(C)(C)C)C1c1ccc2c(c1)OCO2 (stereo not given) | Non-Toxic | Non-Toxic | 297.9 | Non-Toxic | <1 | 0.1 | Non-Toxic | 27.9
